How the values were obtained:
Experiment in all cases: relative viability (nuclei count vs DMSO), 5 days (fraction); higher = more cells survive
[1] = compound: N=C1NC(=O)/C(=C/c2ccc(O)cc2)S1 [Mirin] + CCNC(=O)c1noc(-c2cc(C(C)C)c(O)cc2O)c1-c1ccc(CN2CCOCC2)cc1 [Luminespib] (partner 0.01 µM)
Outline: (§1)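 Relative viability divides the nuclei count in treated wells by that in vehicle wells. Lung cancer cell lines were seeded in 1536-well plates, dosed by pin tool the next day, and fixed and stained after 5 days in one step with final 0.05% Triton X-100, 1% formaldehyde and 1 ug/ml Hoechst. Dosing was a single drug or a fixed anchor-drug dose plus five library-drug doses (not always all listed) in √10 steps, and values are medians of duplicate plates imaged at 4×.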

[2] = compound: N=C1NC(=O)/C(=C/c2ccc(O)cc2)S1 [Mirin] + Nc1nc2[nH]cc(CCc3ccc(C(=O)N[C@@H](CCC(=O)O)C(=O)O)cc3)c2c(=O)[nH]1 [Pemetrexed] (partner 0.2 µM)
Outline: as §1

[3] = compound: N=C1NC(=O)/C(=C/c2ccc(O)cc2)S1 [Mirin] + C[C@@H](Oc1cc(-c2cnn(C3CCNCC3)c2)cnc1N)c1c(Cl)ccc(F)c1Cl [Crizotinib] (partner 1 µM)
Outline: as §1

[4] = compound: CCn1c(-c2nonc2N)nc2cnc(Oc3cccc(NC(=O)c4ccc(OCCN5CCOCC5)cc4)c3)cc21 + C[C@@H](Oc1cc(-c2cnn(C3CCNCC3)c2)cnc1N)c1c(Cl)ccc(F)c1Cl [Crizotinib] (partner 1 µM)
Outline: as §1

Cell Line | relative viability ([1]; first compound 0.25 µM) | relative viability ([1]; first compound 0.7906 µM) | relative viability ([1]; first compound 2.5 µM) | relative viability ([1]; first compound 7.906 µM) | relative viability ([1]; first compound 25 µM) | relative viability ([2]; first compound 0.25 µM) | relative viability ([2]; first compound 0.7906 µM) | relative viability ([2]; first compound 2.5 µM) | relative viability ([2]; first compound 7.906 µM) | relative viability ([2]; first compound 25 µM) | relative viability ([3]; first compound 0.25 µM) | relative viability ([3]; first compound 0.7906 µM) | relative viability ([3]; first compound 2.5 µM) | relative viability ([3]; first compound 7.906 µM) | relative viability ([3]; first compound 25 µM) | relative viability ([4]; first compound 0.04 µM) | relative viability ([4]; first compound 0.1265 µM) | relative viability ([4]; first compound 0.4 µM) | relative viability ([4]; first compound 1.265 µM) | relative viability ([4]; first compound 4 µM)
LU99A | 0.199 | 0.207 | 0.225 | 0.209 | 0.211 | 0.159 | 0.204 | 0.186 | 0.137 | 0.17 | 0.526 | 0.463 | 0.499 | 0.499 | 0.37 | 0.581 | 0.64 | 0.528 | 0.636 | 0.424
LXF-289 | 0.662 | 0.689 | 0.651 | 0.666 | 0.634 | 0.902 | 0.856 | 0.923 | 0.791 | 0.821 | 0.808 | 0.87 | 0.787 | 0.899 | 0.945 | 0.839 | 0.871 | 0.821 | 0.598 | 0.549
NCI-H23 | 0.21 | 0.186 | 0.2 | 0.234 | 0.186 | 0.782 |  | 0.643 | 0.598 | 0.541 | 0.403 |  | 0.469 | 0.451 | 0.337 | 0.812 | 0.82 |  | 0.439 | 0.305
NCI-H322M | 0.924 | 0.745 | 0.913 | 1.05 | 0.583 | 0.633 | 0.528 | 0.615 | 0.713 | 0.568 | 0.797 | 1.04 | 0.874 | 0.905 | 0.756 | 1.28 | 0.976 | 0.96 | 0.953 | 0.922
NCI-H358 | 0.562 | 0.408 | 0.502 | 0.36 | 0.413 | 0.162 | 0.176 | 0.182 | 0.161 | 0.143 | 0.553 | 0.678 | 0.536 | 0.329 | 0.243 | 0.561 | 0.661 | 0.522 | 0.467 | 0.281
NCI-H441 | 0.377 | 0.321 | 0.343 | 0.269 | 0.282 | 0.227 | 0.262 | 0.251 | 0.261 | 0.251 | 0.856 | 0.794 | 0.701 | 0.365 | 0.706 | 1.02 | 0.659 | 0.606 | 0.479 | 0.431
NCI-H460 | 0.0342 | 0.0263 | 0.0361 | 0.0242 | 0.0254 | 0.0601 | 0.0695 | 0.0719 | 0.0635 | 0.0557 | 0.887 | 1.15 | 0.935 | 0.875 | 0.915 | 0.962 | 0.697 | 0.597 | 0.276 | 0.0863
NCI-H520 | 0.234 | 0.241 | 0.225 | 0.235 | 0.211 | 0.654 | 0.591 | 0.7 | 0.545 | 0.449 | 0.993 | 0.715 | 0.715 | 0.631 | 0.377 | 0.957 | 0.784 | 0.751 | 0.565 | 0.371
NCI-H596 | 0.931 | 0.984 | 1.06 | 0.955 | 0.905 | 0.493 | 0.542 | 0.437 | 0.521 | 0.539 | 0.953 | 0.891 | 1.08 | 1.07 | 1.09 | 0.857 | 0.934 | 0.932 | 0.959 | 1.03
NCI-H647 | 0.115 | 0.11 | 0.17 | 0.241 | 0.09 | 0.198 | 0.161 | 0.146 | 0.172 | 0.111 | 1.07 | 1.3 | 1.24 | 1.08 | 0.596 | 1.28 | 0.865 | 0.813 | 0.511 | 0.389
NCI-H650 | 0.741 | 0.7 | 0.857 |  | 0.811 | 1.05 | 0.865 | 0.928 | 0.711 | 0.94 | 0.726 |  | 0.656 |  | 0.673 | 0.838 | 0.758 | 0.432 | 0.388 | 0.339
NCI-H661 | 0.929 | 1.03 | 0.945 | 0.978 | 0.97 | 0.906 | 1.01 | 0.942 | 0.953 | 0.822 |  | 1.01 | 0.861 |  | 1.17 | 0.993 | 1.05 | 1.13 | 0.694 | 0.86
NCI-H838 | 0.316 | 0.332 | 0.285 | 0.229 | 0.396 | 0.235 | 0.259 | 0.258 | 0.236 | 0.188 | 0.895 | 0.918 | 0.834 | 0.906 | 0.681 | 0.725 | 0.427 | 0.466 | 0.272 | 0.228
NCI-H1355 | 0.724 | 0.855 | 0.764 | 0.689 | 0.548 | 1.06 | 1.09 | 1.08 | 1 | 1.11 | 1.07 | 1.18 | 1.02 | 1.04 | 1.1 | 1.16 | 1.11 | 1.18 | 1.01 | 1.01
NCI-H1437 | 1.13 | 1.11 | 1.08 | 1.09 | 1.11 | 0.313 | 0.351 | 0.377 | 0.345 | 0.31 | 0.9 | 0.936 | 0.744 | 0.898 | 0.774 | 0.788 | 0.949 | 0.749 | 0.703 | 0.666
NCI-H1563 | 0.54 | 0.6 | 0.476 | 0.589 | 0.5 | 0.854 | 0.898 | 0.98 | 0.745 | 0.769 | 0.914 | 0.836 | 0.837 | 0.96 | 0.888 | 0.768 | 0.863 | 0.816 | 0.789 | 0.668
